# Experimental data reported in patent US10900018B2, “Means and methods for generation of breast stem cells” (Helmholtz Zentrum München—Deutsches Forschungszentrum Für …, priority 2015, dated 2021).
# Key:
# Type in all cases: cell-based, human
# HMEC [1] = assay: Inhibition of contraction: alveologenesis after detachment of attached collagen gels; conditions: donor M10
# Description: (§1) For contraction assays, 5×10^3 HMEC were plated or 3×10^3 sorted B+ cells/400 μl collagen gel and 1×10^4 LP cells/400 μl collagen gel. At day 12 of culture, 2 ng/μl TGF-β1 (R&D Systems) was added to the culture medium once. For inhibition of contraction experiments, 3×10^3 HMEC (Donor M10) were plated/400 μl collagen gel, and the gels were left attached to the culture dish. At day 13 of culture, when structures had formed, gels were detached and 10 μM Blebbistatin or 5 μM Y-27632 were added to the culture medium every 24 hours. To determine the number of cells per gel, collagen gels were minced using a scalpel, digested with 300 U/ml collagenase I (Sigma) for 1 hour at 37° C., followed by 0.15% trypsin (5 minutes at 37° C.), and filtered to obtain single cells. Cells were counted with a hemocytometer. Images of structures in the gels were acquired on a Leica DM IL LED microscope equipped with a HiPlan 10×/0.22 PH1 objective and images of whole gels were taken with a Zeiss SteREO Lumar.V12 microscope with a NeoLumar S 0.8×objective (6.4× Zoom).
# freshly isolated HMEC = assay: Structure formation by freshly isolated HMEC in floating collagen I gels
# Source text: Mammary gland tissue was obtained from healthy women undergoing reduction mammoplasty at the Nymphenburg Clinic for Plastic and Aesthetic Surgery (Christian Gabka), in accordance with the regulations of the ethics committee of the Ludwig-Maximilian University Munich (proposal 397-12). Single cell suspensions of primary HMEC were generated as previously described with minor modifications (Stingl et al., 2005). Briefly, the ductal tree was minced into about 1.0 mm^3 pieces and digested in collagenase I and hyaluronidase (both Sigma), and subsequently with Trypsin-EDTA and dispase (Life Technologies), and then cryopreserved. Before further processing, cells were filtered through a 40 μm strainer, to remove residual tissue fragments and cell aggregates. Cells were seeded in 2D on polystyrene cell culture plates or in collagen I gels in Mammary Epithelial Cell Growth Medium (MECGM, PromoCell) supplemented with 1% Pen/Strep (Invitrogen), 0.5% FCS (Pan Biotech), 3 μM Y-27632 (Biomol) and 10 μM Forskolin (Biomol), unless stated otherwise. After an establishment period of 5 days, medium was changed to MECGM supplemented with 1% Pen/Strep and 10 μM Forskolin, unless stated otherwise.
# Single cell suspensions containing the desired amount of cells were quickly mixed with neutralizing solution, and acidified rat tail collagen I (Corning) was added, resulting in a final collagen I concentration of 1.3 mg/ml. Next, the gel mixture was plated into siloxane-coated 24-well or 48-well plates. After polymerization of the gel, medium with supplements was carefully added and gels were detached from the well. Attached and attached-to-floating gels were prepared in uncoated 24-well plates. Cells were maintained for 8 up to 20 days (shorter periods for quantification and longer periods for long term treatments).
# Mammary gland tissue was obtained from healthy women undergoing reduction mammoplasty at the Nymphenburg Clinic for Plastic and Aesthetic Surgery (Prof. Christian Gabka), in accordance with the regulations of the ethics committee of the Ludwig-Maximilian University Munich (proposal 397-12). Single cell suspensions of primary HMEC were generated as previously described with minor modifications (Stingl et al., 2005). Briefly, the ductal tree was minced into about 1 mm^3 pieces and enzymatically digested in tissue digestion buffer (F12:DME/HEPES, 1.5% w/v BSA) supplemented with 1 μg/ml insulin, 300 U/ml collagenase and 100 U/ml hyaluronidase (all Sigma) at 37° C. over night. The stromal compartment was optionally separated by differential centrifugation and cryopreserved. The pellet enriched for epithelial cells was further dissociated in 0.15% Trypsin-EDTA and 5 mg/ml dispase (Life Technologies) and then cryopreserved. Before further processing, cells were filtered through a 40 μm strainer, to remove residual tissue fragments and cell aggregates. Freshly isolated primary HMEC were seeded in Mammary Epithelial Cell Growth Medium (MECGM, PromoCell) supplemented with 1% Pen/Strep (Invitrogen), 0.5% FCS (Pan Biotech), 3 μM Y-27632 (Biomol) and 10 μM Forskolin (Biomol), unless otherwise stated. After an establishment period of 5 days, medium was changed to MECGM supplemented 1% Pen/Strep and 10 μM Forskolin, unless otherwise stated. Upon establishment, medium was replaced every 3-4 days. Cells were maintained in 5% CO2, 3% O2 for the whole culture period. […]
# [2] = system: B+ cells (CD10+/CD49fhi/EpCAM−); assay: Contraction of floating collagen I gels containing B+ cell derived TDLU-like structures
# Description: as §1, with “At day 12 of culture, 2 ng/μl TGF-β1 (R&D Systems) was added to the culture medium once.” left out
# (§2) Size of gels, structures, and cells was determined with the ImageJ tool for measurement of areas. Quantification of structures was carried out using the ImageJ cell counter. Structures with at least two branching points were considered as branched. For branching point analysis, branches were traced, one main branch was set, and one branching point was counted for each side-branch.
# LP cells (CD49f+/EpCAM+) = assay: Contraction of floating collagen I gels containing LP-derived spheres; conditions: 2.0 ng/ml TGF-β1 once
# Description: as §1, with “At day 12 of culture, 2 ng/μl TGF-β1 (R&D Systems) was added to the culture medium once.” left out
# as §2
# HMEC [3] = assay: ELDA of branched structure-forming units in floating collagen gels after 2D-culture; conditions: 2D-culture in presence of 10 μM Forskolin, donor M4
# Source text: Mammary gland tissue was obtained from healthy women undergoing reduction mammoplasty at the Nymphenburg Clinic for Plastic and Aesthetic Surgery (Christian Gabka), in accordance with the regulations of the ethics committee of the Ludwig-Maximilian University Munich (proposal 397-12). Single cell suspensions of primary HMEC were generated as previously described with minor modifications ([…] et al., 2005). Briefly, the ductal tree was minced into about 1.0 mm^3 pieces and digested in collagenase I and hyaluronidase (both Sigma), and subsequently with Trypsin-EDTA and dispase (Life Technologies), and then cryopreserved. Before further processing, cells were filtered through a 40 μm strainer, to remove residual tissue fragments and cell aggregates. Cells were seeded in 2D on polystyrene cell culture plates or in collagen I gels in Mammary Epithelial Cell Growth Medium (MECGM, PromoCell) supplemented with 1% Pen/Strep (Invitrogen), 0.5% FCS (Pan Biotech), 3 μM Y-27632 (Biomol) and 10 μM Forskolin (Biomol), unless stated otherwise. After an establishment period of 5 days, medium was changed to MECGM supplemented with 1% Pen/Strep and 10 μM Forskolin, unless stated otherwise. […] Gels with at least one branched structure were counted as positive. […] Limiting dilutions were analyzed using a webtool, as described previously (Hu and Smyth, 2009).
# [4] = 10 μM Forskolin, continuous treatment, donor M8
molecule,measurement,setting,value
Cc1ccc2c(c1)C(=O)C1(O)CCN(c3ccccc3)C1=N2 (stereo not shown) [Blebbistatin],acquisition of alveolar morphology after gel detachment,HMEC [1]; 10 μM Blebbistatin every 24 hours from detachment at day 13,prevented
C[C@@H](N)[C@H]1CC[C@H](C(=O)Nc2ccncc2)CC1 [Y-27632],acquisition of alveolar morphology after gel detachment,HMEC [1]; 5 μM Y-27632 every 24 hours from detachment at day 13,prevented
same,increase of branched structure formation,"freshly isolated HMEC; 3 μM Y-27632, added upon plating, removed after 5 days, floating collagen I gels, day 14, donor M8",approximately 5 fold
same,effect of continuous treatment on morphogenesis,"freshly isolated HMEC; continuous Y-27632 after 5 days of initial culture, data not shown",dissolution of cell-cell adhesion
"TGF-β1: recombinant TGF-β1, morphogen that promotes contractility (R&D Systems)",average cell size in treated structures versus controls,"[2]; TGF-β1-treated B+ derived structures, donor M8, phalloidin F-actin staining",significantly smaller
same,increase of contraction of the gels,"[2]; one-time treatment with 2.0 ng/ml recombinant TGF-β1 at day 12 of culture, gel size 2 days later, donors M3, M10",approximately 2 fold
same,effect on size of gels,"LP cells (CD49f+/EpCAM+); LP-derived spheres, donor M10",did not have an effect
same,effect on size of gels,LP cells (CD49f+/EpCAM+); M3 luminal cells,slight contraction
C=C[C@@]1(C)CC(=O)[C@]2(O)[C@@]3(C)[C@@H](O)CCC(C)(C)[C@@H]3[C@H](O)[C@H](OC(C)=O)[C@@]2(C)O1 [Forskolin],cells giving rise to a TDLU-like structure (B-SFU),HMEC [3]; passage 1,1/290
same,cells giving rise to a TDLU-like structure (B-SFU),HMEC [3]; passage 3,1/250
same,increase of formation of TDLU-like branched structures,freshly isolated HMEC; [4],approximately 12 fold
same,increase of formation of non-branched structures (mostly spheres),freshly isolated HMEC; [4],approximately 1.5 fold
same,increase of overall branched structure-forming potential,freshly isolated HMEC; [4],3 fold
